These are literature values, as cited in publication PMC2650103 (Journal of medicinal chemistry, 2008).

In the series the test system is cowpox, vaccinia or ectromelia virus. The settings on record: mouse, in vivo, po; cited from earlier work.

Consider `O=C(NN1C(=O)C2C3C=CC(C4CC34)C2C1=O)c1ccc(C(F)(F)F)cc1` (stereo not shown) [Compound 30, 4-trifluoromethyl-N-(3,3a,4,4a,5,5a,6,6a-octahydro-1,3-dioxo-4,6-ethenocycloprop[f]isoindol-2(1H)-yl)-benzamide], for which the “Protection against viral spread in mice” value is listed as “effective in protecting against viral spread”.
